Converted amounts (≈) assume the structure as drawn. Numbered stars: 1 amine (or outer) side, 2 acyl side, 3 side chain; on linkers, the order of the positions; unused ones are H or OH. Bridge positions count the residues as written; N and C are the ends. Square brackets hold non-standard residues; d marks the D form. Peptide text beside a SMILES is read from it. X1 = CC(C)CCCCCCCCC[C@H](CC(=O)[*:1])O[*:2]
Experiments:
[1] = system: promastigotes of Leishmania tropica kwh 23; assay: Antileishmanial activity (MTT assay); type: cell-based; conditions: 72 h; for Antileishmanial % growth inhibition (mortality, lethality): 20 μg/mL; for Antileishmanial LC50: MTT
Procedure: Antileishmanial activity against the promastigotes of Leishmania tropica kwh 23 was evaluated by a quantitative colorimetric assay using 3-(4,5-dimethylthiazol-2-yl)-2, 5-diphenyl tetrazolium bromide (MTT) with minor modifications. […] […] Negative control wells contained 1% DMSO in PBS. All samples were run in triplicate. Afterwards, plates were incubated for 4 h at 24 °C with 20 μL of MTT (4 mg/mL in distilled water) to determine the cell viability. Supernatant from each well was carefully removed leaving behind formazan crystals. Colored formazan crystals were dissolved in 100 μL of DMSO by setting those aside for 1 h to ensure complete dissolution. Cell viability was estimated by measuring absorbance at 540 nm using microplate reader and percentage growth inhibition was calculated.

[2] = system: Leishmania tropica kwh 23 promastigotes; assay: Photosensitizing effect against leishmania; type: cell-based; conditions: for Photosensitizing effect % growth inhibition, Sunlight with IR filter: 15 min; for Photosensitizing effect % growth inhibition, Sunlight: 15 min sunlight
Procedure: Photosensitizing effect of tributyltin (IV) compounds was determined in three parallel groups. Samples and controls were exposed for 15 min to sunlight (168 W/m^2 of sun intensity) or sunlight with IR filter or dark conditions. The relative intensity of sunlight was measured by a CCD spectrometer (Ocean Optics, model HR4000). Later, plates were incubated at 25 °C for 72 h and cell viability was determined by MTT assay as given above. In this assay, samples were tested at concentrations showing less than 55% inhibition in primary antileishmanial assay to exclude false positive.

Streptomyces 85E = assay: Protein kinase inhibition assay (Streptomyces disc assay); type: cell-based; conditions: for MIC for PK inhibition: minimum inhibitory concentration
Procedure: Protein kinase inhibitory activity of the tributyltin (IV) compounds was measured against Streptomyces 85E strain using previously described protocol. Culture of Streptomyces 85E was refreshed in tryptic soy broth and 100 μL of this was swabbed on sterile ISP4 medium under aseptic conditions. […] Diameter (mm) of zone of inhibition (ZOI) around all samples and controls was measured as clear zone (CZ) and bald zone (BZ). […] BZ is indicative of PK inhibition.

HepG2 cell line = assay: Cytotoxicity against HepG2 cell line (SRB assay); type: cell-based, human; conditions: for HepG2 % growth inhibition: 20 μg/mL
Procedure: Cytotoxicity was further evaluated against HepG2 cell line by sulforhodamine B (SRB) colorimetric assay. Dulbecco's Modified Eagle Medium (DMEM) supplemented with 10% FBS, 100 μg/mL streptomycin sulfate, 100 IU/mL penicillin G sodium and 0.25 μg/mL amphotericin B was used to culture HepG2 cells in CO2 (5%) incubator (Panasonic, Japan MCO-18 AC-PE) at 37 °C. An aliquot of 20 μL (1% DMSO in PBS) of samples was added to 180 μL of cell culture at an assay density of 1x10^5 cells/mL in 96-well plate. The plate was incubated at 37 °C for 72 h in CO2 incubator. Final concentration of compounds/standard was 20 μg/mL. Doxorubicin and 1% v/v DMSO in PBS ere used as positive and negative controls respectively. An equivalent number of cells in twelve wells of 96-well plate were incubated for 1 h at 37 °C and labeled as day zero control. Later, cells were fixed by adding 50 μL of cold 20% w/v TCA for 1 h at 4 °C. These were washed with tap water, air dried and stained with 50 μL of 0.057% w/v SRB in 1% v/v acetic acid for 30 min at room temperature. Cells were again washed with 1% v/v acetic acid, dried overnight and 200 μL of 10 mM Tris base (pH 10) was used to solubilize the bound dye for 1 h. Absorbance was measured at 515 nm using a microplate reader. Percentage of growth inhibition was calculated as: % inhibition = 100 – [(As – Ao) / (An – Ao) × 100], where, Ao, As and An are absorbance of day zero control, samples and negative control respectively. IC50 values were determined using 3-fold dilutions of the samples.

isolated lymphocytes = assay: Cytotoxicity against isolated lymphocytes (MTT assay); type: cell-based, human; conditions: 24 h
Procedure: Lymphocytes were isolated using previously described protocol with some modifications. Informed consent was obtained from volunteers and procedure was conducted according to international ethical guidelines after gaining approval from the ethical committee of the Quaid-i-Azam University. A volume of 3 mL of blood was obtained from a healthy donor by venipuncture and diluted (1:1) with PBS. It was layered over 2 mL Histopaque-1077 and centrifuged at 800 × g for 20 min. The buffy coat was aspirated into 5 mL of PBS and centrifuged at […] for 4 min to pellet the lymphocytes. The pellet was suspended in 1 mL of RPMI-1640 and cell density was adjusted to get 1 × 10^5 cells/mL. For cytotoxicity determination, 20 μL of samples (20 μg/mL) or vincristine or 1% DMSO in PBS and 180 μL of lymphocyte suspension were incubated in 96-well plate at 37 °C for 24 h in humidified 5% carbon dioxide incubator (Panasonic, Japan MCO-18 AC-PE). Phytohaemagglutinin (PHA) was added in medium to stimulate lymphocyte growth. Afterwards, MTT assay was done as described above. IC50 values were determined using 3-fold dilutions of the samples.

THP-1 cell line = assay: Cytotoxicity against THP-1 cell line (MTT assay); type: cell-based, human; conditions: 72 h; for THP-1 % growth inhibition: 20 μg/mL
Procedure: Cytotoxicity of tributyltin (IV) compounds against THP-1 cell line was determined by 3-(4,5-dimethylthiazol-2-yl)-2,5-diphenyl tetrazolium bromide (MTT) assay. THP-1 cells were cultured in complete growth medium comprising RPMI-1640 (pH 7.4) supplemented with 2.2 g/L NaHCO3 and 10% v/v heat inactivated fetal bovine serum (HIFBS). An aliquot of 20 μL of samples in 1% DMSO in PBS and 180 μL of THP-1 cells were mixed in 96-well plate. Cells were added at an assay density of 1 × 10^4 cells/mL whereas sample/standard was added to achieve the final concentration of 20 μg/mL. The plate was incubated at 37 °C for 72 h in humidified 5% carbon dioxide incubator (Panasonic, Japan MCO-18 AC-PE). Vincristine and 1% DMSO in PBS were used as positive and negative controls respectively. After incubation, 20 μL of pre-filter sterilized MTT solution (4 mg/mL in distilled water) was added in plates and incubated for 4 h at 37 °C in CO2 incubator. Later, colored formazan crystals were separated by removing supernatant and dissolved in 100 μL of DMSO. Reaction was allowed to stand for 1 h to ensure complete dissolution and absorbance was measured at 540 nm using microplate reader (Biotech USA, Elx 800).

[3] = 6.25 μg/disc, BZ indicative of PK inhibition
[4] = 50 μg/disc, BZ indicative of PK inhibition, (-) shows no ZOI

SMILES | Antileishmanial % growth inhibition (mortality, lethality) [1] | Antileishmanial LC50 [1] | ZOI BZ (bald zone) (Streptomyces 85E; [3]) | ZOI CZ (clear zone) (Streptomyces 85E; 50 μg/disc, (-) shows no ZOI) | MIC for PK inhibition (Streptomyces 85E) | HepG2 % growth inhibition (HepG2 cell line; 72 h) | HepG2 IC50 (HepG2 cell line; 72 h, 3-fold dilutions) | THP-1 % growth inhibition (THP-1 cell line) | Photosensitizing effect % growth inhibition, Control ([2]; 0.092 μg/mL) | Photosensitizing effect % growth inhibition, Dark ([2]; 0.092 μg/mL) | Photosensitizing effect % growth inhibition, Sunlight with IR filter ([2]; 0.092 μg/mL) | Photosensitizing effect % growth inhibition, Sunlight ([2]; 0.092 μg/mL) | Isolated lymphocytes % growth inhibition (isolated lymphocytes; 20 μg/mL) | also measured
CCC[CH2][Sn]([CH2]CCC)([CH2]CCC)[O]C(=O)COc1ccc(OCC(=O)[O][Sn]([CH2]CCC)([CH2]CCC)[CH2]CCC)cc1 [Ch-409, bis(tributylstannyl) 2,2’-(1,4-phenylenebis(oxy))diacetate] | 97.5 ± 1.98 % | 0.954 ± 0.158 µg/mL | 30 ± 1.17 mm | 30 ± 1.75 mm | 0.781 ± 0.002 μg/disc | 99.5 ± 3.15 % | 0.08 ± 0.001 µg/mL | 19.4 ± 1.41% | – | – | – | – | – | Photosensitizing effect % growth inhibition, Control ([2]; 0.55 μg/mL): 52.05 ± 1.98%; Photosensitizing effect % growth inhibition, Dark ([2]; 0.55 μg/mL): 56.9 ± 0.02%; Photosensitizing effect % growth inhibition, Sunlight with IR filter ([2]; 0.55 μg/mL): 47.5 ± 1.56%; Photosensitizing effect % growth inhibition, Sunlight ([2]; 0.55 μg/mL): 57.63 ± 1.99%; ZOI CZ (clear zone) (Streptomyces 85E; 6.25 μg/disc, (-) shows no ZOI): 12 ± 0.19 mm; ZOI BZ (bald zone) (Streptomyces 85E; [4]): 31 ± 1.5 mm; Isolated lymphocytes IC50 (isolated lymphocytes): 15.18 ± 0.75ǂ μg/mL
CCC[CH2][Sn]([CH2]CCC)([CH2]CCC)[O]C(=O)/C=C\C(=O)Nc1ccc(C(=O)OCC)cc1 [Ch-431, ethyl (Z)-4-(4-oxo-4-((tributylstannyl)oxy)but-2-enamido)benzoate] | 97.5 ± 2.75 % | 0.078 ± 0.002 µg/mL | 26 ± 0.16 mm | 31 ± 0.78 mm | 0.049 ± 0.002 μg/disc | 96.2 ± 2.23 % | 5.48 ± 0.16 µg/mL | 42.7 ± 1.13% | 50.7 ± 1.25% | 51.5 ± 1.35% | 47.5 ± 0.99% | 53.2 ± 1.55% | 10.7 ± 1.17ǂ % | ZOI CZ (clear zone) (Streptomyces 85E; 6.25 μg/disc, (-) shows no ZOI): 10 ± 0.33 mm; ZOI BZ (bald zone) (Streptomyces 85E; [4]): 33 ± 1.15 mm
CCC[CH2][Sn]([CH2]CCC)([CH2]CCC)[O]C(=O)CCC(=O)Nc1ccc(C(=O)[O][Sn]([CH2]CCC)([CH2]CCC)[CH2]CCC)cc1 [Ch-448, tributylstannyl 4-(4-oxo-4-((tributylstannyl)oxy)butanamido)benzoate] | 96.5 ± 2.67 % | 0.576 ± 0.088 µg/mL | 25 ± 1.75 mm | 31 ± 1.05 mm | 0.781 ± 0.002 μg/disc | 97.1 ± 2.34 % | 3.45 ± 0.63 µg/mL | 43.1 ± 2.29% | – | – | – | – | 23.6 ± 1.07ǂ % | Photosensitizing effect % growth inhibition, Control ([2]; 0.55 μg/mL): 54.65 ± 2.75%; Photosensitizing effect % growth inhibition, Dark ([2]; 0.55 μg/mL): 50.16 ± 1.19%; Photosensitizing effect % growth inhibition, Sunlight with IR filter ([2]; 0.55 μg/mL): 52.9 ± 1.17%; Photosensitizing effect % growth inhibition, Sunlight ([2]; 0.55 μg/mL): 49.7 ± 0.89%
CCC[CH2][Sn]([CH2]CCC)([CH2]CCC)[O]C(=O)c1ccccc1C(=O)Nc1cccc2ccccc12 [Ch-450, tributylstannyl 2-(naphthalene-1-ylcarbamoyl)benzoate] | 97.4 ± 1.35 % | 0.361 ± 0.017 µg/mL | 28 ± 2.5 mm | 32 ± 1.13 mm | 0.195 ± 0.001 μg/disc | 98.5 ± 1.85 % | 2.81 ± 0.34 µg/mL | – | 24.5 ± 1.63% | 26.34 ± 0.15% | 20.7 ± 0.43% | 32.12 ± 1.28% | 11.7 ± 0.05ǂ % | –
CCC[CH2][Sn]([CH2]CCC)([CH2]CCC)[O]C(=O)/C=C\C(=O)Nc1cccc(C)c1C [Ch-459, tributylstannyl (Z)-4-((2,3-dimethylphenyl)amino)-4-oxobut-2-enoate] | 97.9 ± 3.99 % | 0.323 ± 0.002 µg/mL | 30 ± 0.24 mm | 35 ± 0.99 mm | 0.391 ± 0.004 μg/disc | 96.5 ± 4.66 % | 0.62 ± 0.005 µg/mL | – | 20.1 ± 0.59% | 22.7 ± 1.05% | 30.14 ± 1.47% | 25.5 ± 1.75% | – | Isolated lymphocytes IC50 (isolated lymphocytes): 5.78 ± 0.34ǂ μg/mL
COc1cccc2c1C(=O)c1c(O)c3c(c(O)c1C2=O)C[C@@](O)(C(=O)CO)C[C@@H]3O[C@H]1C[C@H](N)[C@H](O)[C@H](C)O1 [Doxorubicin, reference compound] | – | – | – | – | – | – | – | – | – | – | – | – | – | inhibition at 20 µg/mL (HepG2 cell line; Homo sapiens, HepG2, 20 μg/mL, 72 h, read-out: HepG2 % growth inhibition): 97.2 ± 1.14%; IC50 (HepG2 cell line; Homo sapiens, HepG2, 72 h, 3-fold dilutions): 5.36 ± 0.75 µg/mL (≈ 9.86 µM)
CC(C)CCCCCCCCC[C@@H]1CC(=O)N[C@@H](CCC(=O)O)C(=O)N[C@@H](CC(C)C)C(=O)N[C@H](CC(C)C)C(=O)N[C@@H](C(C)C)C(=O)N[C@@H](CC(=O)O)C(=O)N[C@H](CC(C)C)C(=O)N[C@@H](CC(C)C)C(=O)O1 [Surfactin, reference compound] (EL[dL]VD[dL]L; linker N-C via X1) | – | – | – | – | – | – | – | – | – | – | – | – | – | ZOI BZ (bald zone) (Streptomyces 85E; Surfactin positive control, printed 10 μg/mL): 23 ± 1.98 mm
CC[C@]1(O)C[C@H]2CN(CCc3c([nH]c4ccccc34)[C@@](C(=O)OC)(c3cc4c(cc3OC)N(C=O)[C@H]3[C@@](O)(C(=O)OC)[C@H](OC(C)=O)[C@]5(CC)C=CCN6CC[C@]43[C@@H]65)C2)C1 [Vincristine, reference compound] | – | – | – | – | – | – | – | – | – | – | – | – | – | inhibition at 20 µg/mL (isolated lymphocytes; Homo sapiens, Lymphocyte, 20 μg/mL, read-out: Isolated lymphocytes % growth inhibition): 76.3 ± 3.65%; IC50 (isolated lymphocytes; Homo sapiens, Lymphocyte): 6.66 ± 0.09 µg/mL (≈ 8.07 µM); inhibition at 20 µg/mL (THP-1 cell line; Homo sapiens, THP-1, 20 μg/mL, read-out: THP-1 % growth inhibition): 100%
